This is an account of results in US11352350B2, “IRAK degraders and uses thereof” (Kymera Therapeutics, Inc., priority 2018, dated 2022).

For one assay, the system named is OCI-LY10. As to the kind of experiment: CTG Cell Viability Assay - OCI-LY10. Type of assay: cell-based, human. To be noted: OCI-LY10, 4 days, read-out: CTG Cell Viability Assay - OCI-LY10: Average external-IC50. A digest of the protocol: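 OCI-LY10 cells exposed to 9-dose, 1:3 dilutions from 10 μM top (0.2% DMSO) for 4 days at 37° C, 5% CO2. Viability by CellTiter-Glo luminescence; IC50 from three-parameter logistic fit.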

In another assay the target is IRAK4 (Homo sapiens (Human), UniProt Q9NWZ3). The assay is described as follows: IRAK4 MSD degradation in OCI-LY10. The assay is classed as cell-based. Conditions: MSD. A digest of the protocol: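 OCI-LY10 cells treated with 8-point 1:3 dilutions (top 1 to 10 μM final) for 4 to 24 h at 37° C. Lysate IRAK4 measured by MSD sandwich immunoassay (2H9 capture, Y279 detection, SULFO-TAG anti-rabbit). DC50 from three-parameter logistic fit.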

Setting [1] is: OCI-LY10, 4 hrs, read-out: IRAK4 MSD degradation in OCI-LY10 at 4 hrs: Average external-Abs DC50.
The mark [2] stands for this setting: OCI-LY10, 24 hrs, read-out: IRAK4 MSD degradation in OCI-LY10 at 24 hrs: Average external-Abs DC50.

The pIC50 is the IC50 on a negative log10 scale, so that one unit is a factor of ten. What is called DC50 is the concentration at which degradation of the target reaches its halfway point.

pIC50: −log10 of the molar value. Read-outs that look alike come from different tables or passages of the source. A value given as a limit tells only on which side of the number the result lay.

Sequence of IRAK4 (Q9NWZ3 whole entry): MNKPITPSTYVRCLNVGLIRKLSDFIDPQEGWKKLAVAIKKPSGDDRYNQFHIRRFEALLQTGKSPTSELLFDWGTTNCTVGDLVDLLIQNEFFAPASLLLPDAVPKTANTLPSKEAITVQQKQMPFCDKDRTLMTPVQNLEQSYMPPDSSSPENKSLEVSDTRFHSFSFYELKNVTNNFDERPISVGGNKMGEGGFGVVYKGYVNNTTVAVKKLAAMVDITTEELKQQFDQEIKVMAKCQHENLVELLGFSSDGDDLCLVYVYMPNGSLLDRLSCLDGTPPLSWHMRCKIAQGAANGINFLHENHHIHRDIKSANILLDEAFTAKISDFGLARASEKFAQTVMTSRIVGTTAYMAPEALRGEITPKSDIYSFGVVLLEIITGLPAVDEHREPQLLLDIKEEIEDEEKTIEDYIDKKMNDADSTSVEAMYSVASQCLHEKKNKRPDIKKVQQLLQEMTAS

For the compound `Cn1c(=O)n(C2CCC(=O)NC2=O)c2cccc(CCCOC3CCN(C[C@H]4CC[C@H](n5cc(NC(=O)c6cnn7ccc(N8C(=O)N[C@@H]9[C@H]8CCCC9(F)F)nc67)c(C(F)F)n5)CC4)CC3)c21` (stereo partly drawn) [I-291], in the assay with OCI-LY10 (Homo sapiens, OCI-Ly10, 96 h), the pIC50 is > 7.30. Besides, the DC50 on IRAK4 (setting [1]) and on IRAK4 (setting [2]) was 0.01 to 0.1 µM each time.
Take `Cn1c(=O)n(C2CCC(=O)NC2=O)c2cccc(CCCOC3CCN(C[C@H]4CC[C@H](n5cc(NC(=O)c6cnn7ccc(N[C@@H]8CCCC[C@H]8O)nc67)c(C(F)F)n5)CC4)CC3)c21` (stereo partly drawn) [I-293]: in the assay with OCI-LY10 (Homo sapiens, OCI-Ly10, 96 h), the pIC50 was < 6.00. On IRAK4 (setting [1]), the DC50 was 0.01 to 0.1 µM.
With `O=C1CCC(N2C(=O)c3cccc(NCCCOC4CCN(C[C@H]5CC[C@H](n6cc(NC(=O)c7cnn8ccc(N[C@@H]9CCCC[C@@H]9O)nc78)c(C(F)F)n6)CC5)CC4)c3C2=O)C(=O)N1` (stereo partly drawn) [I-294], the negative-log IC50 (pIC50) with OCI-LY10 (Homo sapiens, OCI-Ly10, 96 h) was > 7.30. For the same compound, the DC50 on IRAK4 (setting [1]) lay in the range of 0.01 to 0.1 µM.
In the same order, the values of `O=C1CCC(N2C(=O)c3cccc(OCCCOC4CCN(C[C@H]5CC[C@H](n6cc(NC(=O)c7cnn8ccc(N[C@@H]9CCCC[C@@H]9O)nc78)c(C(F)F)n6)CC5)CC4)c3C2=O)C(=O)N1` (stereo partly drawn) [I-296] are < 6.00 and 0.01 to 0.1 µM.
Consider `O=C1CCC(N2C(=O)c3cccc(OCCCOC4CCN(C[C@H]5CC[C@H](n6cc(NC(=O)c7cnn8ccc(N9CCOCC9)nc78)c(C(F)F)n6)CC5)CC4)c3C2=O)C(=O)N1` (stereo partly drawn) [I-297], for which the pIC50 in the assay on OCI-LY10 was < 6.00. Besides, the DC50 on IRAK4 (setting [1]) is 0.01 to 0.1 µM.
Turning to `O=C1CCC(N2C(=O)c3cccc(N4CCC(CCCN5CCC(n6cc(NC(=O)c7cnn8ccc(N[C@@H]9CCCC[C@@H]9O)nc78)c(C(F)F)n6)CC5)CC4)c3C2=O)C(=O)N1` (stereo partly drawn) [I-298], the pIC50 with OCI-LY10 (Homo sapiens, OCI-Ly10, 96 h) was 6.30 to 7.00. Besides, the DC50 on IRAK4 (setting [1]) is 0.1 to 1 µM.
On to `O=C1CCC(N2C(=O)c3cccc(NCCOC4CCN(C[C@H]5CC[C@H](n6cc(NC(=O)c7cnn8ccc(N9C[C@H]%10C[C@@H]9CO%10)nc78)c(C(F)F)n6)CC5)CC4)c3C2=O)C(=O)N1` (stereo partly drawn) [I-299], for which the pIC50 in the assay on OCI-LY10 (Homo sapiens, OCI-Ly10, 96 h) was 7.00 to 7.30. In addition, the DC50 at IRAK4 (setting [1]) fell in the range of 0.01 to 0.1 µM.
In the same order, the values of `Cn1c(=O)n(C2CCC(=O)NC2=O)c2cccc(CCCOC3CCN(C[C@H]4CC[C@H](n5cc(NC(=O)c6cnn7ccc(N[C@@H]8CCCC(F)(F)[C@@H]8N)nc67)c(C(F)F)n5)CC4)CC3)c21` (stereo partly drawn) [I-300] are 6.00 to 6.30 and 0.1 to 1 µM.
With `CC([C@H]1CC[C@H](n2cc(NC(=O)c3coc(-c4ccnc(NCC5CC5)c4)n3)c(C(F)F)n2)CC1)N1CCC(OCCCc2cccc3c2n(C)c(=O)n3C2CCC(=O)NC2=O)CC1` (stereo partly drawn) [I-301, 2-[2-(Cyclopropylmethylamino)-4-pyridyl]-N-[3-(difluoromethyl)-1-[4-[1-[4-[3-[1-(2,6-dioxo-3-piperidyl)-3-methyl-2-oxo-benzimidazol-4-yl]propoxy]-1-piperidyl]ethyl]cyclohexyl]pyrazol-4-yl] oxazole-4-carboxamide], in the assay with OCI-LY10 (Homo sapiens, OCI-Ly10, 96 h), the pIC50 was > 7.30. Also, the DC50 at IRAK4 (setting [1]) was in the range of 0.01 to 0.1 µM.
As to `Cn1c(=O)n(C2CCC(=O)NC2=O)c2cccc(CCCOC3CCN(C[C@H]4CC[C@H](n5cc(NC(=O)c6cnn7ccc(N8C[C@H](N)CC(F)(F)C8)nc67)c(C(F)F)n5)CC4)CC3)c21` (stereo partly drawn) [I-303, 5-[(5R)-5-amino-3,3-difluoro-1-piperidyl]-N-[3-(difluoromethyl)-1-[4-[[4-[3-[1-(2,6-dioxo-3-piperidyl)-3-methyl-2-oxo-benzimidazol-4-yl]propoxy]-1-piperidyl]methyl]cyclohexyl]pyrazol-4-yl] pyrazolo [1,5-a] pyrimidine-3-carboxamide], the pIC50 in the assay with OCI-LY10 (Homo sapiens, OCI-Ly10, 96 h) is < 6.00. Also, the DC50 on IRAK4 (setting [1]) fell in the range of 0.01 to 0.1 µM.
In the case of `Cn1c(=O)n(C2CCC(=O)NC2=O)c2cccc(CCCOC3CCN([C@H]4CC[C@H](Nc5ncnc6ccc(C#N)cc56)CC4)CC3)c21` (stereo partly drawn) [I-304, 4-[[4-[4-[3-[1-(2,6-dioxo-3-piperidyl)-3-methyl-2-oxo-benzimidazol-4-yl]propoxy]-1-piperidyl]cyclohexyl]amino] quinazoline-6-carbonitrile], in the assay with OCI-LY10 (Homo sapiens, OCI-Ly10, 96 h), the pIC50 is < 6.00. Also, the DC50 on IRAK4 (setting [1]) and on IRAK4 (setting [2]) was > 1 µM throughout.
